The subject of data set [1] is SETVI: green foxtail (Setaria viridis). The data set can be described thus: Post-emergent Test III, herbicidal activity in wheat and barley. It counts as in vivo. Conditions: Table 9, 21 d; for pest or weed control at 35 g/ha / pest or weed control at 70 g/ha: Setaria viridis, post-emergence, 504 h, post-emergent, read-out: Visual Growth Reduction (%) 21 Days After Application SETVI; for pest or weed control at 35 g/ha: 35 g ai/ha; for pest or weed control at 70 g/ha: 70 g ai/ha; for GR50 SETVI: dose for 50 percent growth reduction; for GR50 SETVI / GR80 SETVI: probit analysis; for GR80 SETVI: dose for 80 percent growth reduction. In short, it runs like this:
(§1)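 GR20, GR50, GR80 and GR90 come from probit analysis of visual injury scores (0 = none, 100 = complete kill) taken 21 d after treatment. Foliar application was by track sprayer delivering 187 L/ha at five rates, from high down to 1/16×, onto greenhouse plants at the 2–3 leaf stage, with solvent-blank controls.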

Experiment in data set [2]: as above
The class given is in vivo, Lolium multiflorum, Lolium rigidum. Conditions: Lolium multiflorum, post-emergence, 504 h, Table 9, post-emergent, 21 d, read-out: Visual Growth Reduction (%) 21 Days After Application LOLSS; for pest or weed control at 35 g/ha: 35 g ai/ha; for pest or weed control at 70 g/ha: 70 g ai/ha. In short, it runs like this:
as §1

Data set [3] deals with TRZSS: wheat, including spring and winter (Triticum aestivum). The data set is described as above. The class given is in vivo. Conditions: Table 9, 21 d; for GR20 TRZSS: dose for 20 percent growth reduction, probit analysis; for pest or weed control at 35 g/ha / pest or weed control at 70 g/ha: Triticum aestivum, post-emergence, 504 h, post-emergent, read-out: Visual Growth Reduction (%) 21 Days After Application TRZSS; for pest or weed control at 35 g/ha: 35 g ai/ha; for pest or weed control at 70 g/ha: 70 g ai/ha. Put shortly: as §1

Data set [4] deals with HORSS: barley, including spring and winter (Hordeum vulgare). The data set is described as above. The class given is in vivo. Conditions: Table 9, 21 d; for pest or weed control at 35 g/ha / pest or weed control at 70 g/ha: Hordeum vulgare, post-emergence, 504 h, post-emergent, read-out: Visual Growth Reduction (%) 21 Days After Application HORSS; for pest or weed control at 35 g/ha: 35 g ai/ha; for pest or weed control at 70 g/ha: 70 g ai/ha; for GR20 HORSS: dose for 20 percent growth reduction, probit analysis. In short, it runs like this:
as §1

The subject of data set [5] is LOLSS: ryegrass including, Italian ryegrass (Lolium multiflorum), rigid ryegrass (Lolium rigidum), annual ryegrass (Lolium multiflorum subsp. Gaudini). The description is as above. It counts as in vivo. Conditions: Table 9, probit analysis, 21 d; for GR50 LOLSS: dose for 50 percent growth reduction; for GR80 LOLSS: dose for 80 percent growth reduction. Put shortly: as §1

Data set [6] deals with KCHSC: kochia (Kochia scoparia). The data set is described as above. It counts as in vivo. Conditions: Table 9, 21 d; for pest or weed control at 35 g/ha / pest or weed control at 70 g/ha: Bassia scoparia, post-emergence, 504 h, post-emergent, read-out: Visual Growth Reduction (%) 21 Days After Application KCHSC; for pest or weed control at 35 g/ha: 35 g ai/ha; for pest or weed control at 70 g/ha: 70 g ai/ha; for GR50 KCHSC: dose for 50 percent growth reduction; for GR50 KCHSC / GR80 KCHSC: probit analysis; for GR80 KCHSC: dose for 80 percent growth reduction. Put shortly:
as §1

Data set [7] deals with APESV: bentgrass (Apera spica-venti). The description is as above. It counts as in vivo. To be noted: Table 9, 21 d; for pest or weed control at 35 g/ha / pest or weed control at 70 g/ha: Apera spica-venti, post-emergence, 504 h, post-emergent, read-out: Visual Growth Reduction (%) 21 Days After Application APESV; for pest or weed control at 35 g/ha: 35 g ai/ha; for pest or weed control at 70 g/ha: 70 g ai/ha; for GR50 APESV: dose for 50 percent growth reduction; for GR50 APESV / GR80 APESV: probit analysis; for GR80 APESV: dose for 80 percent growth reduction. In short, it runs like this:
as §1

Results on 2 molecules are retold here after patent publication US9113629B2, “4-amino-6-(4-substituted-phenyl)-picolinates and 6-amino-2-(4-substituted-phenyl)-pyrimidine-4-carboxylates and their use as herbicides” (DOW AGROSCIENCES LLC, priority 2013, dated 2015).

Bounds are passed on as bounds.

`Cc1c(-c2ccc(C(F)(F)F)c(F)c2)nc(C(=O)O)c(Cl)c1N` [Compound 161, 4-amino-3-chloro-6-(3-fluoro-4-(trifluoromethyl)phenyl)-5-methylpicolinic acid] came in with a melting point of 170 to 171.5 °C. In data set [1], the pest or weed control at 35 g/ha is 30 to 44%, the pest or weed control at 70 g/ha is 60 to 74%, the “GR50 SETVI” value is listed as 53 g ai/ha and the “GR80 SETVI” value is reported as 128 g ai/ha. Further, in data set [2], the pest or weed control at 35 g/ha was in the range of 0 to 29% and the pest or weed control at 70 g/ha fell in the range of 0 to 29%. In addition, in data set [3], the “GR20 TRZSS” value worked out at 1 g ai/ha, the pest or weed control at 35 g/ha was 75 to 84% and the pest or weed control at 70 g/ha is 75 to 84%. In data set [4], the pest or weed control at 35 g/ha was in the range of 85 to 94%, the pest or weed control at 70 g/ha is 85 to 94% and the “GR20 HORSS” value amounted to 1 g ai/ha. In addition, in data set [5], the “GR50 LOLSS” value was 38 g ai/ha and the “GR80 LOLSS” value amounted to 82 g ai/ha. Also, in data set [6], the pest or weed control at 35 g/ha was in the range of 0 to 29%, the pest or weed control at 70 g/ha was in the range of 0 to 29%, the “GR50 KCHSC” value is recorded as >140 g ai/ha and the “GR80 KCHSC” value is >140 g ai/ha. Further, in data set [7], the pest or weed control at 35 g/ha is 60 to 74%, the pest or weed control at 70 g/ha lay within 75 to 84%, the “GR50 APESV” value came out at 30 g ai/ha and the “GR80 APESV” value is recorded as 57 g ai/ha.

For `Nc1c(Cl)c(C(=O)O)nc(-c2ccc(I)cc2)c1Cl` [Compound 173], the melting point was in the range of 188.7 to 190.3 °C. Besides, in data set [1], the pest or weed control at 35 g/ha was 30 to 44%, the pest or weed control at 70 g/ha is 45 to 59%, the “GR50 SETVI” value was determined as 54 g ai/ha and the “GR80 SETVI” value is on record as 104 g ai/ha. Moreover, in data set [2], the pest or weed control at 35 g/ha lay within 30 to 44% and the pest or weed control at 70 g/ha was in the range of 45 to 59%. For the same molecule, in data set [3], the “GR20 TRZSS” value is reported as 1 g ai/ha, the pest or weed control at 35 g/ha lay in the range of 75 to 84% and the pest or weed control at 70 g/ha lay within 85 to 94%. In addition, in data set [4], the pest or weed control at 35 g/ha fell in the range of 85 to 94%, the pest or weed control at 70 g/ha fell in the range of 95 to 100% and the “GR20 HORSS” value turned out to be 1 g ai/ha. For the same molecule, in data set [5], the “GR50 LOLSS” value is reported as 119 g ai/ha and the “GR80 LOLSS” value is >140 g ai/ha. In data set [6], the pest or weed control at 35 g/ha fell in the range of 30 to 44%, the pest or weed control at 70 g/ha was 45 to 59%, the “GR50 KCHSC” value was 60 g ai/ha and the “GR80 KCHSC” value amounted to 131 g ai/ha. For the same molecule, in data set [7], the pest or weed control at 35 g/ha was in the range of 60 to 74%, the pest or weed control at 70 g/ha lay in the range of 75 to 84%, the “GR50 APESV” value was determined as 27 g ai/ha and the “GR80 APESV” value is given as 59 g ai/ha.
